Here are results for 41 sequences from patent US9340577B2, “HLA binding motifs and peptides and their uses” (priority 1992, dated 2016).

Common to all, as to experiment: biochemical
Common to all, as to type: binding

The target of test [1] is A*3301 (Homo sapiens, UniProt P04439, A270S/D185E/E176V/E277Q/E87N/F33T/G231S/H175R/I121M/I218V/I322F/K168Q/K210R/L300P/L318F/M331R/P217A/Q86R/Q94H/R138Q/T323A/T345S/T97I/V358M/Y195H).
Test [2] concerns the target A31 (A*3101) (Homo sapiens, UniProt P04439, A270S/D185E/E176V/E277Q/F33T/G231S/G80R/H175R/I121M/I218V/I322F/K168Q/L300P/L318F/M331R/P217A/Q94H/R138Q/T323A/T345S/T97I/V358M).
Test [3] deals with HLA-A11 (A*1101) (Homo sapiens, UniProt P04439, A114D/D185E/E176A/F33Y/L180Q/S129P/T187R).
Test [4] concerns the target A*6801 (Homo sapiens, UniProt P04439, A269V/D185E/E176V/E277Q/E87N/F33Y/G231S/I121M/I166T/I218V/L180W/L300P/L318F/N151K/P208A/P217A/Q86R/R169H/T345S).
In test [5] the target is HLA-A3.2 (A*0301) (Homo sapiens, UniProt P04439).

No end group written: not given here.

For VTVKIGGELK [Peptide 1516.03], the 50% inhibitory concentration (IC50) in test [1] is greater than 20000 nM; in test [2], greater than 20000 nM; in test [3], 39 nM; in test [4], 33 nM; in test [5], 4110 nM.
As for FIHFRIGCR [Peptide 9017.0112], the IC50 in test [1] is 13 nM; in test [2], 61 nM; in test [3], 7120 nM; in test [4], 67 nM; in test [5] it was 1010 nM.
For TALIKPKKR [Peptide 9017.0102] the same measures were 774 nM, 1740 nM, 2730 nM, 295 nM and greater than 20000 nM.
Taken in the same sequence, the figures for SFFQNLQVIR [Peptide 9012.0232] were 702 nM, 432 nM, 3990 nM, 1400 nM and 3800 nM.
For VFCGPANTGK [Peptide 88.0150] the same measures were 811 nM, 485 nM, 1660 nM, 3000 nM and 1950 nM.
Consider SSCMGGMNR [Peptide 1556.59], for which the IC50 in test [1] was determined as 39 nM; in test [2], 54 nM; in test [3] it was 16 nM; in test [4], 110 nM; in test [5], 206 nM.
For GTMCRHYKR [Peptide 1587.34] the same measures were 226 nM, 20 nM, 31 nM, 56 nM and 611 nM.
For GTRQARKNRR [Peptide 9017.0200] the same measures were 8370 nM, 56 nM, 2920 nM, 1480 nM and 1550 nM.
Taken in the same sequence, the figures for LLQAVRIIK [Peptide 9017.0068] were 3020 nM, 328 nM, 326 nM, 15900 nM and 107 nM.
For the sequence VTIRVAGQVK [Peptide 1516.04], the IC50 was greater than 20000 nM in test [1]; 4600 nM in test [2]; 21 nM in test [3]; 52 nM in test [4]; 53 nM in test [5].
MQYVAWKYIY [Peptide 88.0233]: the IC50 in test [1] is greater than 20000 nM; in test [2], greater than 20000 nM; in test [3], 52 nM; in test [4], 12100 nM; in test [5], 1890 nM.
For the sequence LTTNIHPAK [Peptide 88.0347], the IC50 was 575 nM in test [1]; 231 nM in test [2]; 18 nM in test [3]; 16 nM in test [4]; 44 nM in test [5].
Taken in the same sequence, the figures for GTVFGILIKR [Peptide 9012.0243] were 3130 nM, 46 nM, 27 nM, 18 nM and 2560 nM.
For KLCLRFLSK [Peptide 1571.20] the same measures were greater than 20000 nM, 271 nM, 279 nM, greater than 20000 nM and 18 nM.
As to SQWIKYRCDR [Peptide 88.0136], the half-inhibitory concentration (IC50) in test [1] was 2710 nM; in test [2], 418 nM; in test [3], 11000 nM; in test [4], greater than 20000 nM; in test [5], 19100 nM.
KSCFAMSLIK [Peptide 88.0190]: the IC50 in test [1] is greater than 20000 nM; in test [2], 311 nM; in test [3] it was 17 nM; in test [4], 12200 nM; in test [5], 57 nM.
On to AFRDLCIVYR [Peptide 78.0079], for which the half-inhibitory concentration (IC50) in test [1] was 41 nM; in test [2] it was 13 nM; in test [3], 4380 nM; in test [4], 600 nM; in test [5], 3110 nM.
Taken in the same sequence, the figures for NLQGKLYYK [Peptide 88.0375] were 9.4 nM, 363 nM, 55 nM, 98 nM and 277 nM.
Turning to VSIEWRQRR [Peptide 9017.0089], the IC50 came to 7.1 nM in test [1]; 1.5 nM in test [2]; 13 nM in test [3]; 41 nM in test [4]; 1350 nM in test [5].
As for AAEGVGAASR [Peptide 9017.0187], the concentration for half-maximal inhibition (IC50) in test [1] was 5100 nM; in test [2] it was 3270 nM; in test [3], 478 nM; in test [4], 450 nM; in test [5], greater than 20000 nM.
Taken in the same sequence, the figures for GSLQYLALK [Peptide 9017.0096] were 14400 nM, 72 nM, 6.6 nM, 10000 nM and 17 nM.
For KQEAVRHFPR [Peptide 9017.0239] the same measures were 575 nM, 9.9 nM, 394 nM, 6740 nM and 9260 nM.
With RQMSMGQWIK [Peptide 1587.35], the concentration for half-maximal inhibition (IC50) in test [1] was greater than 20000 nM; in test [2], 48 nM; in test [3], 6 nM; in test [4], 2230 nM; in test [5], 53 nM.
For VTVYYGVPIWK [Peptide 1525.02] the same measures were 1350 nM, 150 nM, 2.3 nM, 5 nM and 18 nM.
For ESKKEVESK [Peptide 9017.0083] the same measures were greater than 20000 nM, greater than 20000 nM, 8040 nM, 158 nM and greater than 20000 nM.
For LVYRDDFPY [Peptide 1581.04] the same measures were greater than 20000 nM, greater than 20000 nM, 58 nM, 11300 nM and 7380 nM.
Turning to EVLMWKFDSR [Peptide 9017.0192], the 50% inhibitory concentration (IC50) in test [1] is 62 nM; in test [2], 436 nM; in test [3] it was 7630 nM; in test [4], 2.8 nM; in test [5], greater than 20000 nM.
Regarding ITYSDETQR [Peptide 88.0429], the concentration for half-maximal inhibition (IC50) in test [1] stood at 1350 nM; in test [2], 879 nM; in test [3], 165 nM; in test [4] it was 26 nM; in test [5], 2960 nM.
Take KGLGISYGRKK [Peptide 1577.23]: the IC50 in test [1] was greater than 20000 nM; in test [2], 49 nM; in test [3], 6210 nM; in test [4], greater than 20000 nM; in test [5], 23 nM.
Turning to KVSEFRWYR [Peptide 78.0281], the 50% inhibitory concentration (IC50) in test [1] came out at 32 nM; in test [2] it was 10 nM; in test [3], 15 nM; in test [4] it was 23 nM; in test [5], 43 nM.
Taken in the same sequence, the figures for TVSATQLVK [Peptide 1589.08] were greater than 20000 nM, 14600 nM, 4.4 nM, 31 nM and 6.5 nM.
Taken in the same sequence, the figures for VTVYYGVPVWR [Peptide 1525.01] were 511 nM, 19 nM, 22 nM, 29 nM and 560 nM.
Taken in the same sequence, the figures for TQQLQDLFK [Peptide 88.0374] were 2000 nM, greater than 20000 nM, 53 nM, 6680 nM and 1700 nM.
As to SVRKLTEDR [Peptide 9017.0106], the IC50 in test [1] was found to be 646 nM; in test [2], 48 nM; in test [3], 7640 nM; in test [4], 226 nM; in test [5], 16800 nM.
On to LTALITPKK [Peptide 9017.0101], for which the IC50 worked out at 4500 nM in test [2], 4.2 nM in test [3], 6.5 nM in test [4] and 41 nM in test [5].
Taken in the same sequence, the figures for AAFDLSFFLK [Peptide 9017.0189] were 130 nM, 2.3 nM, 1.9 nM and 9 nM.
Taken in the same sequence, the figures for CTELKLVYR [Peptide 78.0334] were 64 nM, greater than 20000 nM, 1330 nM and greater than 20000 nM.
For MLIRYTCGK [Peptide 88.0377], the IC50 in test [2] is 1220 nM; in test [3], 14 nM; in test [4], 15 nM; in test [5] it was 34 nM.
Taken in the same sequence, the figures for MVIEPPKLR [Peptide 88.0360] were 729 nM, 271 nM, 13 nM and greater than 20000 nM.
Taken in the same sequence, the figures for WTIVYIEYRK [Peptide 9017.0243] were 1350 nM, 37 nM, 0.94 nM and 4890 nM.
Taken in the same sequence, the figures for NTMDYTNWK [Peptide 88.0425] were greater than 20000 nM, 19 nM, 13 nM and 1600 nM.
